# Measured values: PubChem BioAssay (NCI)
#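 Cells were grown in 96-well plates and exposed to each compound for 48 hours at five concentrations; endpoints were interpolated linearly between bracketing concentrations, or set to the highest concentration if not reached. The concentration for full growth arrest is given as TGI.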 Where a SMILES comes first, the peptide text is derived from it. [ ]: non-standard residue; d: D form. The star is where a group is joined. mTyr = N[CH](Cc1cccc(O)c1)C(=O)O; Cbz = O=C(OCc1ccccc1)*; OBn = c1ccc(CO*)cc1
# What was measured:
# Assay in all cases: NCI-60 cell line screen, 48 h
# NCI-H226 lung = tested on: NCI-H226 lung
# COLO 205 colon = tested on: COLO 205 colon
# DU-145 prostate = tested on: DU-145 prostate
# SK-OV-3 ovarian = tested on: SK-OV-3 ovarian
# OVCAR-4 ovarian = tested on: OVCAR-4 ovarian
# T-47D breast = tested on: T-47D breast
# U251 CNS = tested on: U251 CNS
# SR leukemia = tested on: SR leukemia
# TK-10 renal = tested on: TK-10 renal
# IGROV1 ovarian = tested on: IGROV1 ovarian
# KM12 colon = tested on: KM12 colon
Structure (SMILES),TGI (NCI-H226 lung) [µM],TGI (COLO 205 colon) [µM],TGI (DU-145 prostate) [µM],TGI (SK-OV-3 ovarian) [µM],TGI (OVCAR-4 ovarian) [µM],TGI (T-47D breast) [µM],TGI (U251 CNS) [µM],TGI (SR leukemia) [µM],TGI (TK-10 renal) [µM],TGI (IGROV1 ovarian) [µM],TGI (KM12 colon) [µM]
Brc1ccc(-c2cn3ccncc3n2)cc1,> 100,> 100,> 100,> 100,> 100,> 100,> 100,> 100,> 100,> 100,> 100
CC(C)C1=CC23CCC4C(C)(C(=O)O)CCCC4(C)C2CC1C1C(=O)N(c2ccc(C(=O)O)cc2)C(=O)C13 (centres undefined),> 100,> 100,> 100,> 100,> 100,> 100,> 100,–,> 100,> 100,> 100
COc1ccc(C(=O)c2[nH]c(Nc3ccc(Cl)cc3)c(C(=S)Nc3ccccc3)c2N)cc1,> 100,> 100,> 100,> 100,93.6,> 100,–,> 100,> 100,> 100,> 100
CCN(c1cccc(NC(=S)Nc2ccccc2N(CC)c2cc(-c3ccccc3)no2)c1)c1cc(-c2ccccc2)no1,> 100,> 100,> 100,> 100,> 100,> 100,> 100,> 100,> 100,> 100,> 100
Cc1ccc(CC(C)N)cc1 (centres undefined),> 100,> 100,–,> 100,> 100,–,> 100,–,> 100,> 100,> 100
FC(F)(F)c1ccc2nc(Sc3ccccn3)cnc2c1,60.2,> 100,> 100,> 100,> 100,> 100,42.3,–,> 100,> 100,> 100
COc1ccc(/C=C2\CN(C)C/C(=C\c3ccc(OC)c(OC)c3OC)C2=O)c(OC)c1OC,2.49,0.287,1.39,1.89,1.13,6.22,0.177,0.0854,2.33,1.07,–
COc1nc(N)c(N=CC(OC(C)=O)C(OC(C)=O)C(COC(C)=O)OC(C)=O)c(=O)n1C (centres undefined),> 100,> 100,> 100,> 100,> 100,> 100,> 100,> 100,> 100,> 100,> 100
CC(C)(C)c1cc(C2COC(c3cc(C(C)(C)C)c(O)c(C(C)(C)C)c3)CO2)cc(C(C)(C)C)c1O (centres undefined),> 100,96.7,> 100,> 100,> 100,> 100,> 100,–,> 100,> 100,> 100
O=C(Nc1cccc(F)c1)c1cc2ccc(O)cc2oc1=Nc1ccccc1F,–,41.7,15.1,15.9,26.8,12.1,13.4,39.5,–,7.44,22.4
CC(C)CN=C(N)N=C(N)N,> 100,> 100,> 100,> 100,> 100,> 100,> 100,> 100,> 100,> 100,> 100
COc1cc(C(c2ccc3c(c2)OCO3)N2C(=O)CCC2C(=O)O)cc(OC)c1OC (centres undefined),> 100,> 100,> 100,> 100,> 100,> 100,> 100,–,> 100,> 100,> 100
CCOC(=O)[C@H](Cc1ccc(O)cc1)N=C1[C@H]2CCC[C@]1(O)[C@@](C)([N+](=O)[O-])C2,> 100,> 100,> 100,> 100,> 100,–,> 100,> 100,> 100,> 100,> 100
N#C/C(=C\c1c[nH]c2ccccc12)C(=O)c1ccc(O)c(O)c1,> 100,> 67.7,> 100,> 100,> 100,> 100,> 100,> 31.6,98.2,> 89.4,> 100
COC(=O)C(Cc1cccc(O)c1)NC(=O)C(CC(=O)OCc1ccccc1)NC(=O)OCc1ccccc1 (centres undefined) (Cbz-Asp(OBn)-[mTyr]-OMe; configuration not given here),> 100,> 100,–,–,–,59.5,> 100,> 100,> 100,> 100,> 100
CNc1ccc(N)cc1C(=O)N1CCC[C@H]1CO,> 100,> 100,> 100,> 100,> 100,> 100,> 100,–,> 100,> 100,> 100
CCOc1cc(NC(C)=O)ccc1C(=O)NN1C(=O)C(Cl)C1c1ccco1 (centres undefined),> 100,38.3,31.1,38.2,33.3,40.3,–,35.9,31.3,28.8,33.6
Cc1ccc(N=Nc2c(O)c(C(=O)Nc3ccccc3)cc3ccccc23)c([N+](=O)[O-])c1,–,> 100,> 100,> 100,> 100,> 100,> 100,–,> 100,> 100,> 100
COc1cc([C@@H]2c3cc(O)c(OC)cc3C=C(C(N)=O)[C@H]2C(N)=O)ccc1O,> 100,> 100,> 100,–,–,> 100,> 100,> 100,–,> 100,> 100
CSCCC(NC(=O)Cc1ccc(C(=O)c2ccccc2)cc1)C(=O)O (centres undefined),> 100,> 100,> 100,> 100,> 100,> 100,> 100,–,> 100,> 100,> 100
COc1cc(/C=C(/C#N)C(N)=O)ccc1O,> 100,> 100,–,> 100,> 100,–,> 100,–,–,> 100,> 100
